Measured values as given in ChEMBL document CHEMBL4002601, “A triple exon-skipping luciferase reporter assay identifies a new CLK inhibitor pharmacophore” (Bioorg Med Chem Lett, 2017).
pEC50, pIC50: −log10 of the molar value. Active and inactive are the calls of the source. No cut-off for these calls is given here.

Legend:
[1] = biological target: T1, Dual specificity protein kinase CLK1 (Homo sapiens, UniProt P49759); assay: Inhibition of CLK mediated SF3B1 activation in human SK-MEL-2 cells assessed as MDM2-pre mRNA exon skipping after 4 hrs by luciferase reporter gene assay relative to control; type: cell-based; conditions: for pEC50: read-out: EC50
Target sequence in this assay (P49759 whole entry): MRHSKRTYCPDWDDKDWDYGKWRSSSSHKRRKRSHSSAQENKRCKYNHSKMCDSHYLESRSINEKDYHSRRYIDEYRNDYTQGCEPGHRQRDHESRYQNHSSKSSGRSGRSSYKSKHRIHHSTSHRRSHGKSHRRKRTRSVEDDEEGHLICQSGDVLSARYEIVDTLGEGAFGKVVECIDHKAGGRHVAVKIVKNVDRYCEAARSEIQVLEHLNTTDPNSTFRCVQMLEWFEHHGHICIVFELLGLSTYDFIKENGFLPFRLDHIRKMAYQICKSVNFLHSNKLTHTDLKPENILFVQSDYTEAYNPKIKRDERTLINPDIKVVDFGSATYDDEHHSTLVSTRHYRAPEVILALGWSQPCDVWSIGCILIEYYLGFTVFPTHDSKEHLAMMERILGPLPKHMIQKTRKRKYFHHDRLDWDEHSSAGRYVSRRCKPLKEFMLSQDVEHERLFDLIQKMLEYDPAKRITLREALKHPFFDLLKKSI

[2] = biological target: T1, Dual specificity protein kinase CLK1; assay: Inhibition of human CLK1 using substrate ERMRPRKRQGSVRRRV in presence of [gamma-33P]ATP after 40 mins by scintillation counter method
Target sequence in this assay (P49759 whole entry): as above

[3] = biological target: Dual specificity protein kinase CLK2 (Homo sapiens, UniProt P49760); assay: Inhibition of human CLK2 using YRRAAVPPSPSLSRHSSPHQS(p)EDEEE as substrate in presence of [gamma-33P]ATP after 40 mins by scintillation counter method
Sequence of Dual specificity protein kinase CLK2 (P49760 whole entry): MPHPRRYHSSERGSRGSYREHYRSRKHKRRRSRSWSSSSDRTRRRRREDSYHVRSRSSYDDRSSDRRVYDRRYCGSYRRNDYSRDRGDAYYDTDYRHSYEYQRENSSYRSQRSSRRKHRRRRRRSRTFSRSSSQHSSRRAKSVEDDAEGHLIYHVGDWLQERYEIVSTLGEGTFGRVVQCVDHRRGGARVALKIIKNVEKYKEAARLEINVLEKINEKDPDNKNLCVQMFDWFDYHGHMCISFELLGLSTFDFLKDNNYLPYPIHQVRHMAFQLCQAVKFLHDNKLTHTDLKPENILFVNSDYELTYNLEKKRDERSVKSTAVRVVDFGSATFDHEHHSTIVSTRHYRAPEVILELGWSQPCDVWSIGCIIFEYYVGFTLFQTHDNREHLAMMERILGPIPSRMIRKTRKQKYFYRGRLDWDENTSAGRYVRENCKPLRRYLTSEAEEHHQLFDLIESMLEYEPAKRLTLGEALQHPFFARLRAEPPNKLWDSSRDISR

[4] = biological target: Dual specificity protein kinase CLK3 (Homo sapiens, UniProt P49761); assay: Inhibition of human CLK3 using ERMRPRKRQGSVRRRV as substrate in presence of [gamma-33P]ATP after 40 mins by scintillation counter method
Sequence of Dual specificity protein kinase CLK3 (P49761 whole entry): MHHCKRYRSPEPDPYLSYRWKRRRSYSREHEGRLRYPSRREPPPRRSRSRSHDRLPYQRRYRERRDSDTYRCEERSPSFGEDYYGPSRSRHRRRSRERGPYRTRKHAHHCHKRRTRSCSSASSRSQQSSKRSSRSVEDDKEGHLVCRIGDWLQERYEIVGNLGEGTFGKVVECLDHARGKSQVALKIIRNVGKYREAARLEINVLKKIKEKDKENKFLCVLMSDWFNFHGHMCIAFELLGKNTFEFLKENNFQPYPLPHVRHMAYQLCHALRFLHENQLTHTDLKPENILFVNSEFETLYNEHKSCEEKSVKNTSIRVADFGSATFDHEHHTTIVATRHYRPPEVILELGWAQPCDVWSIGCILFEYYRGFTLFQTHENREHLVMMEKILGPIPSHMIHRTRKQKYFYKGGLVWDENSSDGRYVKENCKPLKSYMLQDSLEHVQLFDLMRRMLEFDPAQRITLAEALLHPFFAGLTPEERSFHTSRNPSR

[5] = biological target: Dual specificity protein kinase CLK4 (Homo sapiens, UniProt Q9HAZ1); assay: Inhibition of human CLK4 using YRRAAVPPSPSLSRHSSPHQS(p)EDEEE as substrate in presence of [gamma-33P]ATP after 40 mins by scintillation counter method
Sequence of Dual specificity protein kinase CLK4 (Q9HAZ1 whole entry): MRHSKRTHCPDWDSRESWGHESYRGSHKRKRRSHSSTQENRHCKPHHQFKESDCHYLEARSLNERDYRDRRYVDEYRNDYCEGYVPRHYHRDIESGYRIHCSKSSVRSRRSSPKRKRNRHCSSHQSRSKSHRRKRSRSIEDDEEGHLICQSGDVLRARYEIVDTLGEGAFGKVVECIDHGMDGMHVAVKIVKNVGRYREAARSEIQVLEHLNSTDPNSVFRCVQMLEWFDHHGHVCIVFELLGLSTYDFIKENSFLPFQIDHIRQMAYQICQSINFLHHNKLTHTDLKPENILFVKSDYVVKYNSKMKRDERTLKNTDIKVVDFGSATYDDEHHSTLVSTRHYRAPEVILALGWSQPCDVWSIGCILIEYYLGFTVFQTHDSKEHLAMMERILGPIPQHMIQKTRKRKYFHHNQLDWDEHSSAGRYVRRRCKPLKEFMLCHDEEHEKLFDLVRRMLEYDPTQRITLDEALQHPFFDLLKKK

[6] = biological target: Cyclin-dependent kinase 1/cyclin B1 (Homo sapiens, UniProt P06493); assay: Inhibition of human CDK1/cyclinB using Histone H1 as substrate in presence of [gamma-33P]ATP after 40 mins by scintillation counter method; type: protein-complex assay
Sequence of Cyclin-dependent kinase 1/cyclin B1 (P06493 whole entry): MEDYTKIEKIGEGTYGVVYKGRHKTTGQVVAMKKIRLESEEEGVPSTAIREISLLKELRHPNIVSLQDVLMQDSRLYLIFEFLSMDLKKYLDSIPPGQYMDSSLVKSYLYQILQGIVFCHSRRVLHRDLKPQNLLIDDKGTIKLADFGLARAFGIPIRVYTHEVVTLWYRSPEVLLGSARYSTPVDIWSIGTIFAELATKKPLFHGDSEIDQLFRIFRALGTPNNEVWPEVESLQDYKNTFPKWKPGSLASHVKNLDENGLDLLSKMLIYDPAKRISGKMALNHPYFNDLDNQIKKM
Sequence of Cyclin-dependent kinase 1/cyclin B1 (P14635 whole entry, further chain): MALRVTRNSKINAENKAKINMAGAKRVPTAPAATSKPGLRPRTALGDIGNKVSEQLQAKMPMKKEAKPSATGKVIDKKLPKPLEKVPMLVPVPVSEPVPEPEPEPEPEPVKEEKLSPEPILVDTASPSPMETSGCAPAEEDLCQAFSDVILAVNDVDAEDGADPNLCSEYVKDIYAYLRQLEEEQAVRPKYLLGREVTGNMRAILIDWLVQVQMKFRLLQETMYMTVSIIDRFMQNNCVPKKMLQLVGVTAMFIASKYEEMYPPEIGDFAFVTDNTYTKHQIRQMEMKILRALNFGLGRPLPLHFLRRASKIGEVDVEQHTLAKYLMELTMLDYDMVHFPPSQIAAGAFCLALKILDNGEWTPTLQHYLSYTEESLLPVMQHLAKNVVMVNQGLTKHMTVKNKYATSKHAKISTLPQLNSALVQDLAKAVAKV

CDK4/Cyclin D3 [7] = biological target: CDK4/Cyclin D3 (Homo sapiens, UniProt P11802); assay: (§1) Inhibition of human CDK4/cyclinD3 using Histone H1 as substrate in presence of [gamma-33P]ATP after 40 mins by scintillation counter method; type: protein-complex assay
Sequence of CDK4/Cyclin D3 (Homo sapiens, UniProt P11802) (P11802 whole entry): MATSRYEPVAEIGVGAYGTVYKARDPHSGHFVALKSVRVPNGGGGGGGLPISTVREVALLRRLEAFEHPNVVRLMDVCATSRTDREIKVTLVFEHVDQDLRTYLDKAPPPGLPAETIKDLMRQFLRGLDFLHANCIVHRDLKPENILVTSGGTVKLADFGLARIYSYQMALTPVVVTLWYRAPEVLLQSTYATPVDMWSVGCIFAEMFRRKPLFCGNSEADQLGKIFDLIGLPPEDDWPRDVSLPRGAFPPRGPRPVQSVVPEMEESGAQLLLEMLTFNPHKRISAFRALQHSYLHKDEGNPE
Sequence of CDK4/Cyclin D3 (Homo sapiens, UniProt P11802) (P30281 whole entry, further chain): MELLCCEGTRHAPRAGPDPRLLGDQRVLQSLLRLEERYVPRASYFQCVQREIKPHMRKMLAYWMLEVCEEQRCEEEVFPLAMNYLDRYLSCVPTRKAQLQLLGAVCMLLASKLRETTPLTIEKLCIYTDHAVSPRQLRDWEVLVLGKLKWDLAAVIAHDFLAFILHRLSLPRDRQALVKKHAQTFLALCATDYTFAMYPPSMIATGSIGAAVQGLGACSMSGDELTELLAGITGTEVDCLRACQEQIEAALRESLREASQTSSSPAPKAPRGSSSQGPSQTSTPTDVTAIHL

CDK6/cyclin D3 [8] = biological target: CDK6/cyclin D3 (Homo sapiens, UniProt Q00534); assay: (§2) Inhibition of human CDK6/cyclinD3 using Histone H1 as substrate in presence of [gamma-33P]ATP after 40 mins by scintillation counter method; type: protein-complex assay
Sequence of CDK6/cyclin D3 (Homo sapiens, UniProt Q00534) (P30281 whole entry): as the sequence (P30281 whole entry, further chain) above
Sequence of CDK6/cyclin D3 (Homo sapiens, UniProt Q00534) (Q00534 whole entry): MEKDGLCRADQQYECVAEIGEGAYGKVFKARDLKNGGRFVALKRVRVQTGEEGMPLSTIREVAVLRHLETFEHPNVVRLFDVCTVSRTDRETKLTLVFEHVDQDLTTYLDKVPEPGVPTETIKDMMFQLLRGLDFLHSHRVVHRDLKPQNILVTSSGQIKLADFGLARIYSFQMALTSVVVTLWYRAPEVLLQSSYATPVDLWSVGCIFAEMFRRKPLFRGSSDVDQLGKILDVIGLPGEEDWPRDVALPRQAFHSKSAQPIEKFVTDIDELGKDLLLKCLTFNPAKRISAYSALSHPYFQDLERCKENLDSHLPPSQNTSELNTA

[9] = biological target: T1, Dual specificity protein kinase CLK1; assay: Inhibition of CLK mediated SF3B1 activation in human SK-MEL-2 cells assessed as MDM2-pre mRNA exon skipping at 10 uM after 4 hrs by luciferase reporter gene assay relative to control; type: cell-based; parameters: Activity: scale not given: the % may be the effect or the level left
Target sequence in this assay (P49759 whole entry, looked up): as the sequence (P49759 whole entry) above

[10] = biological target: T1, Dual specificity protein kinase CLK1; assay: Inhibition of CLK mediated SF3B1 activation in human Rh-18 cells assessed as MDM2-pre mRNA exon skipping at 10 uM after 8 hrs by RT-PCR method; type: cell-based
Target sequence in this assay (P49759 whole entry, looked up): as the sequence (P49759 whole entry) above

[11] = Solubility of the compound; type: physicochemical
CDK4/Cyclin D3 [12] = biological target: CDK4/Cyclin D3 (Homo sapiens, UniProt P11802+P30281); assay: as §1; type: protein-complex assay
Sequence of CDK4/Cyclin D3 (Homo sapiens, UniProt P11802+P30281) (P11802 whole entry): as the sequence (P11802 whole entry) above
Sequence of CDK4/Cyclin D3 (Homo sapiens, UniProt P11802+P30281) (P30281 whole entry): as the sequence (P30281 whole entry, further chain) above

CDK6/cyclin D3 [13] = biological target: CDK6/cyclin D3 (Homo sapiens, UniProt P30281+Q00534); assay: as §2; type: protein-complex assay
Sequence of CDK6/cyclin D3 (Homo sapiens, UniProt P30281+Q00534) (P30281 whole entry): as the sequence (P30281 whole entry, further chain) above
Sequence of CDK6/cyclin D3 (Homo sapiens, UniProt P30281+Q00534) (Q00534 whole entry): as the sequence (Q00534 whole entry) above

[14] = biological target: T1, Dual specificity protein kinase CLK1; assay: Inhibition of CLK mediated SF3B1 activation in human HeLa cells assessed as MDM2-pre mRNA exon skipping by luciferase reporter gene assay; type: cell-based
Target sequence in this assay (P49759 whole entry): as the sequence (P49759 whole entry) above

In the case of CC(C)n1cnc2c(Nc3cc(N)cc(Cl)c3)nc(N[C@H]3CCCNC3)nc21, the pEC50 [1] was 4.89.

With CCn1cnc2c(Nc3cccc(Cl)c3)nc(N[C@@H]3CCCC[C@@H]3NC(C)=O)nc21 (racemic) the EC50 [1] was “Not Active” and the pIC50 [2] was less than 6.00.

For CC(C)n1cnc2c(Nc3cc(N)cc(Cl)c3)nc(N[C@@H]3CCCC[C@@H]3N)nc21 (racemic), the pEC50 [1] was 5.19, the pIC50 [2] was 7.74 and the pIC50 [3] was 7.80. The pIC50 [4] was less than 6.00, the pIC50 [5] was 7.27 and the pIC50 [6] was 6.01. The pIC50 (CDK4/Cyclin D3 [7]) was less than 6.00 and the pIC50 (CDK6/cyclin D3 [8]) was less than 6.00.

For CC(C)n1cnc2c(Nc3cc(N)cc(Cl)c3)nc(N[C@H]3CCCC[C@@H]3N)nc21, the pEC50 [1] was 4.63.

With COC(=O)c1c(/C(C#N)=C\N)c2ccc(Cl)c(Cl)c2n1C the pEC50 [1] was 5.10 and the inhibition [9] was “Active”.

Molecule CC(=O)Nc1cc(Cl)cc(Nc2nc(N[C@H]3CCCC[C@H]3N)nc3c2ncn3C(C)C)c1 has a pEC50 [1] of 4.76.

With CC(C)[C@H](CO)Nc1nc(Nc2cc(N)cc(Cl)c2)c2ncn(C(C)C)c2n1 [AMINOPURVALANOL] the pEC50 [1] was 4.92 and the inhibition [10] was “Active”.

Work on C#CCCCCCCCCCCC(=O)CC(O)COC(C)=O (centres undefined) yielded an Activity [9] of 14%.

CC(=O)Nc1cc(Cl)cc(Nc2nc(N[C@@H]3CCCC[C@@H]3N)nc3c2ncn3C(C)C)c1 (racemic) [listing 1 of 2 here] showed a fold change (FC) [9] greater than 3.

With Clc1cccc(Nc2nnc(-c3ccccc3)c3ccccc23)c1 the Activity [9] was 11%.

CCn1cnc2c(Nc3cccc(Cl)c3)nc(N[C@H]3CCCC[C@@H]3N)nc21 gave a pEC50 [1] of 4.66 and a fold change (FC) [9] greater than 3.

With CC(C)n1cnc2c(Nc3cc(N)cc(Cl)c3)nc(N[C@@H]3CCNC3)nc21 the pEC50 [1] was 4.58.

Work on CC(C)n1cnc2c(Nc3cccc(Cl)c3)nc(N[C@H]3CCCC[C@H]3N)nc21 yielded a pEC50 [1] of 4.91 and a fold change (FC) [9] greater than 3.

In the case of COCCNc1nc(Nc2cccc(Cl)c2)c2ncn(C(C)C)c2n1, the EC50 [1] was “Not Active” and the solubility [11] was “Insoluble”.

CC(C)n1cnc2c(Nc3cc(N)cc(Cl)c3)nc(N[C@H]3CCCC[C@H]3N)nc21 showed a pEC50 [1] of 4.73.

In the case of CC(/C=C/[C@@H]1C[C@]2(CO2)CC(C)(C)O1)=C\C[C@H]1CC[C@@H](NC(=O)/C=C\[C@H](C)OC(=O)N(C)C)CC1, the inhibition [9] was “Active”.

In the case of CC(C)n1cnc2c(Nc3cc(N)cc(Cl)c3)nc(N[C@@H]3CCCC[C@H]3N)nc21, the pEC50 [1] was 5.01.

For CC(C)n1cnc2c(Nc3cc(N)cc(Cl)c3)nc(N[C@@H]3CCCC[C@@H]3N)nc21, the pEC50 [1] was 5.52, the pIC50 [4] was less than 6.00 and the pIC50 [6] was 6.27. For the same molecule, the pIC50 (CDK4/Cyclin D3 [12]) was less than 6.00 and the pIC50 (CDK6/cyclin D3 [13]) was less than 6.00.

CC(C)n1cnc2c(Nc3cc(N)cc(Cl)c3)nc(N[C@H]3CCNC3)nc21 showed a pEC50 [1] of 4.92.

For CC(=O)Nc1cc(Cl)cc(Nc2nc(N[C@@H]3CCCC[C@@H]3N)nc3c2ncn3C(C)C)c1, the pEC50 [1] was 5.14, the pIC50 [6] was less than 6.00 and the pIC50 (CDK6/cyclin D3 [8]) was less than 6.00.

CC(C)n1cnc2c(Nc3cc(N)cc(Cl)c3)nc(N[C@@H]3CCCNC3)nc21 gave a pEC50 [1] of 4.85.

In the case of CC(C)n1cnc2c(Nc3cccc(Cl)c3)nc(N[C@@H]3CCCC[C@H]3N)nc21, the pEC50 [1] was 5.35 and the fold change (FC) [9] was greater than 3.

In the case of COc1ccc2c(C)nc(Nc3nc(C)c(C)c(O)n3)nc2c1, the inhibition [9] was “inactive”.

Work on O=C(O)COc1ccc(Cl)cc1Cl yielded an Activity [9] of 21%.

In the case of CCn1cnc2c(Nc3cccc(Cl)c3)nc(N[C@@H]3CCCC[C@H]3N)nc21, the pEC50 [1] was 5.11 and the fold change (FC) [9] was greater than 3.

CC(=O)Oc1ccc(/C=C/c2cc(OC(C)=O)cc(OC(C)=O)c2)cc1 showed an Activity [9] of 17%.

For CCN1/C(=C/C(C)=O)Sc2ccc(Cl)cc21, the inhibition [9] was “inactive”.

For CC(C)n1ccc2c(Nc3cccc(Cl)c3)nc(N[C@H]3CCCC[C@H]3N)nc21 (racemic), the pIC50 [2] was less than 6.00 and the inhibition [9] was “inactive”.

In the case of CNC(=O)O[C@@H](C)/C=C\C(=O)N[C@H]1CC[C@@H](C/C=C(C)/C=C/[C@@H]2C[C@]3(CO3)CC(C)(C)O2)CC1, the pEC50 [1] was 6.10.

CC(=O)Nc1cc(Cl)cc(Nc2nc(N[C@@H]3CCCC[C@@H]3N)nc3c2ncn3C(C)C)c1 (racemic) [listing 2 of 2 here] gave a pEC50 [1] of 5.09, a pIC50 [2] of 7.72 and a pIC50 [3] of 7.89. The pIC50 [5] was 7.19 and the pIC50 (CDK4/Cyclin D3 [7]) was 6.03.

With COc1ccc2c(c1)/C(=C/c1cnc[nH]1)C(=O)N2 the Activity [9] was 53%.

Work on CC1=Nc2ccc(Cl)cc2S(=O)(=O)N1 yielded an Activity [9] of 11%.

In the case of CCn1cnc2c(Nc3cccc(Cl)c3)nc(N[C@@H]3CCCC[C@@H]3N)nc21 (racemic), the pEC50 [1] was 5.38, the inhibition [10] was “Active” and the pIC50 [2] was 6.83. For the same molecule, the pIC50 [3] was 6.95, the pIC50 [4] was less than 6.00 and the pIC50 [5] was 6.98. The pIC50 [6] was 6.42, the pIC50 (CDK4/Cyclin D3 [7]) was 6.24 and the pIC50 (CDK6/cyclin D3 [8]) was less than 6.00. It also gave a fold change (FC) [9] greater than 3.

With COc1ccc2c(C)nc(Nc3nc(C)c(C)c(=O)[nH]3)nc2c1 the pEC50 [14] was 4.70.
